What was measured:
[1] = tested on: expression of d2EGFP in human colon cancer COLO 320DM cells; test: Level of expression of d2EGFP by cell sorter in DM clone treated with 5-aza (Example 9); assay type: cell-based; conditions: DM clone treated with 3 μM of 5-aza for 3 days, then Doxycycline 1 μg/ml for 2 days
Text: An equimolar mixture of a plasmid (pSFVdhfr/d2EGFP) and pTet-ON plasmid (Clontech Laboratories Inc.) was simultaneously transfected into human colon cancer COLO 320DM cells. The plasmid (pSFVdhfr/d2EGFP) was a plasmid having (a) IR and MAR derived from human DHFR gene locus, (b) Blasticidin tolerance gene, and (c) d2EGFP gene that was under control of TRE-promoter (Tetracycline inducing promoter). Meanwhile, the pTet-ON plasmid was a plasmid having Tet-ON gene encoding the transcription activating factor (Tet-ON protein) of TRE-promoter. The cells were selected with 5 μg/ml of Blasticidin thereby obtaining a polyclonal population of transformed cells. […] In FIG. 20, the detected base sequence derived from the pSFVdhfr/d2EGFP plasmid is indicated by the arrow. […]
In each culture solution of the two clones, 3 μM of 5-aza was added and thereby the clones were treated with 5-aza for 3 days. […] After the culturing, the level of the expression of d2EGFP in each clone was analyzed by a cell sorter. […] This polyclonal population of transformed cells was subjected to the induction of expression of d2EGFP with Doxycycline and a level of the expression of d2EGFP therein was analyzed by using the cell sorter in the same way as described above. […] FIG. 21(a) illustrates the result of the fluorescence intensity measurements of HSR clone two days after the addition of Doxycycline. […]

[2] = tested on: expression of d2EGFP in Tet-ON cells (COLO 320DM) transfected with pSFVdhfr/d2EGFP; test: Level of expression of d2EGFP by cell sorter in HSR and DM clones of Tet-ON cells with 5-aza (Example 7); assay type: cell-based, human; conditions: 1 week, Doxycycline 1 μg/ml
Protocol: Fluorescence intensity of these cells were measured by using a cell sorter. The measurement was carried out by sorting 20,000 cells by setting living cells at a gate. The cell sorter used was made by Becton Dickinson, and operated under conditions as described in the manual attached thereto.
In this method for detecting the fluorescence intensity, detection limit was 1, and all fluorescence intensities of 1 or less would be detected as 1. In view of this, a product of a ratio (cell %) of cells of fluorescence intensities of 2 or more in all living cells (10,000 cells) and an average of the fluorescence intensities of the cells having fluorescence intensities of 2 or more was calculated out for each experimental plot. This product is referred to as “accumulated fluorescence intensity” hereinafter and in later Examples and shown in boxed letter in the figures.
By lipofection, the pTet-ON plasmid (Clontech Laboratories Inc.) having Tet-ON gene encoding a transcription activating factor (Tet-ON protein) for promoting TRE-promoter was transfected into human colon cancer COLO 320DM. Transformed cells (hereinafter referred to as “Tet-ON cells”) which stably expressed Tet-ON protein, were selected with Hygromycin.
Next, the pSFVdhfr/d2EGFP plasmid was transfected into the Tet-ON cells by lipofection. The cells thus obtained were selected with 5 μg/ml of Blasticidin for approximately 3 weeks, thereby obtaining a polyclonal population of the stable transformed cells.
The expression of d2EGFP was induced in the polyclonal population by activating TRE-promoter by adding 5 μg/ml of Doxycycline (Clontech Laboratories Inc.) in the medium. FIG. 9 illustrates a result of analysis of the level of the expression of d2EGFP in this case by using a cell sorter. In FIG. 9, the value in parenthesis is an average of fluorescence intensities (i.e., average fluorescence intensity), and boxed value is an accumulated fluorescence intensity. Based on the result of FIG. 9, it was confirmed that the polyclonal population was a population for expressing d2EGFP (average fluorescence intensity: 6.25, accumulated fluorescence intensity: 536).
From the polyclonal population, given 30 clones were obtained by a limiting dilution method that was carried out by inoculating a clone to 6 well plates with such a low cell concentration of 30 cells/ml, and incubating the plates for 10 days to 2 weeks thereby obtaining colonies thereon.
From among the clones, 4 clones having high levels of expression of d2EGFP (Clone 4, Clone 5, Clone 6, and Clone 9) were selected by fluorescence microscopic observation. Mitotic chromosome samples of the 4 clones were prepared. By FISH method, detection for a base sequence derived from the transfected pSFVdhfr/d2EGFP plasmid was carried out. The preparation of mitotic chromosome samples and the FISH method were carried out as described in Shimizu, N., Kanda, T., and Wahl, G. M. Selective capture of acentric fragments by micronuclei provides a rapid method of purifying extrachromosomally amplified DNA. Nature Genet., 12: 65-71, 1996.
For 4 clones, induction with Doxycycline (Clontech Laboratories Inc.; 1 μg/ml) was carried out and 5-aza (0 μM, 1 μM or 3 μM) was added in the medium. After 1 week culturing, the level of expression of d2EGFP in each clone was analyzed by using a cell sorter.

[3] = clone 4 (HSR), 1 μM of 5-aza in the medium
[4] = clone 4 (HSR), 3 μM of 5-aza in the medium
[5] = clone 5 (HSR), 1 μM of 5-aza in the medium
[6] = clone 5 (HSR), 3 μM of 5-aza in the medium
[7] = clone 6 (HSR), 1 μM of 5-aza in the medium
[8] = clone 6 (HSR), 3 μM of 5-aza in the medium
[9] = clone 9 (DM), 1 μM of 5-aza in the medium
[10] = clone 9 (DM), 3 μM of 5-aza in the medium

`Nc1ncn([C@H]2C[C@H](O)[C@@H](CO)O2)c(=O)n1` [5-aza, 5-aza-2′-deoxycytidine] showed an accumulated fluorescence intensity [1] of 238113, an accumulate fluorescence intensity [2, 3] of 453 and an average fluorescence intensity [2, 3] of 5.46. For the same compound, the accumulate fluorescence intensity [2, 4] was 2300, the average fluorescence intensity [2, 4] was 23.76 and the accumulate fluorescence intensity [2, 5] was 126. The average fluorescence intensity [2, 5] was 2.23, the accumulate fluorescence intensity [2, 6] was 962 and the average fluorescence intensity [2, 6] was 10.44. For the same compound, the accumulate fluorescence intensity [2, 7] was 111, the average fluorescence intensity [2, 7] was 2.09 and the accumulate fluorescence intensity [2, 8] was 1000. For the same compound, the average fluorescence intensity [2, 8] was 10.87, the accumulate fluorescence intensity [2, 9] was 13200 and the average fluorescence intensity [2, 9] was 131.86. It also gave an accumulate fluorescence intensity [2, 10] of 24900 and an average fluorescence intensity [2, 10] of 248.60.
